The source of these data is patent EP4740948A1 (Dong Wha Pharm. Co., Ltd., priority 2023, dated 2025).

Molecules are shown by their SMILES.

Experiment [1] relates to G401 cells. In words: Cancer cell proliferation inhibition (Cell Counting Kit-8), rhabdoid tumor cell line. Particulars: 1000 nM, cultured seven to 11 days; for inhibition at 1 µM: Homo sapiens, G-401, 264 h, read-out: % inhibition rate G401. The experiment is classed as cell-based. The gist of the method:
(§1)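 Single 1000 nM dose of test substance, applied to cells seeded at 100–1,000 per well in 10% FBS medium, then culture for seven to 11 days. CCK-8 read-out; inhibition rate expressed as percent relative to untreated control.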

The target of experiment [2] is EZH2 (Homo sapiens, UniProt Q15910). Description: AlphaLISA enzyme activity inhibition, EZH2. The format is biochemical. Particulars: for inhibition at 0.005 µM: 5nM test substance; for inhibition at 0.01 µM: 10nM test substance. The gist of the method: (§2)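 Enzyme inhibition rate was calculated relative to DMSO from AlphaLISA signal, with acceptor beads added after a 2 h methylation reaction and donor beads 1 h later. Each enzyme, EZH1 or EZH2, was pre-mixed with compound (final 5 nM or 10 nM) in Tris buffer pH 8.0 before histone H3 peptide and SAM initiated the reaction.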
(Bead proximity is the source of the signal in Alpha formats.)

Experiment [3] deals with NCI-H1299 cells. In words: Cancer cell proliferation inhibition (Cell Counting Kit-8), lung cancer cell line. The format is cell-based. Particulars: Homo sapiens, NCI-H1299, 264 h, 1000 nM, cultured seven to 11 days; read-out: % inhibition rate NCI-H129 9. The gist of the method:
(§3)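 Percent inhibition, calculated as {1−(test group/control group)} × 100, comes from Cell Counting Kit-8 measurement. Treatment was 1000 nM test substance for seven to 11 days on cells plated at 100 to 1,000 per well in serum-containing medium.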

For experiment [4], the system named is MIA-PaCa-2 cells. In words: Cancer cell proliferation inhibition (Cell Counting Kit-8), pancreatic cancer cell line. Particulars: Homo sapiens, MIA PaCa-2, 264 h, 1000 nM, cultured seven to 11 days; read-out: % inhibition rate MIA-Paca2. The experiment is classed as cell-based. The gist of the method: as §3
Experiment [5] has as its system SW-13 cells. In words: Cancer cell proliferation inhibition (Cell Counting Kit-8), adrenal cancer cell line. The experiment is classed as cell-based. The conditions noted are these: Homo sapiens, SW13, 264 h, 1000 nM, cultured seven to 11 days; read-out: % inhibition rate SW-13. The gist of the method: as §3
Experiment [6] concerns Lovo cells. In words: Cancer cell proliferation inhibition (Cell Counting Kit-8), colorectal cancer cell line. The experiment is classed as cell-based. The conditions noted are these: 1000 nM, cultured seven to 11 days; for inhibition at 1 µM: Homo sapiens, LoVo, 264 h, read-out: % inhibition rate LoVo. The gist of the method:
as §3
(In general: Formazan colour is commonly taken as a measure of viable cells.)

In experiment [7] the test system is MKN-45 cells. Description: Cancer cell proliferation inhibition (Cell Counting Kit-8), gastric cancer cell line. The conditions noted are these: Homo sapiens, MKN-45, 264 h, 1000 nM, cultured seven to 11 days; read-out: % inhibition rate MKN -45. The format is cell-based. The gist of the method:
as §1

In experiment [8] the target is EZH1 (Homo sapiens, UniProt Q92800). Description: AlphaLISA enzyme activity inhibition, EZH1. The conditions noted are these: for inhibition at 0.005 µM: 5nM test substance; for inhibition at 0.01 µM: 10nM test substance. The format is biochemical. The gist of the method: as §2
Chain of EZH1 (Q92800 whole entry, species assumed): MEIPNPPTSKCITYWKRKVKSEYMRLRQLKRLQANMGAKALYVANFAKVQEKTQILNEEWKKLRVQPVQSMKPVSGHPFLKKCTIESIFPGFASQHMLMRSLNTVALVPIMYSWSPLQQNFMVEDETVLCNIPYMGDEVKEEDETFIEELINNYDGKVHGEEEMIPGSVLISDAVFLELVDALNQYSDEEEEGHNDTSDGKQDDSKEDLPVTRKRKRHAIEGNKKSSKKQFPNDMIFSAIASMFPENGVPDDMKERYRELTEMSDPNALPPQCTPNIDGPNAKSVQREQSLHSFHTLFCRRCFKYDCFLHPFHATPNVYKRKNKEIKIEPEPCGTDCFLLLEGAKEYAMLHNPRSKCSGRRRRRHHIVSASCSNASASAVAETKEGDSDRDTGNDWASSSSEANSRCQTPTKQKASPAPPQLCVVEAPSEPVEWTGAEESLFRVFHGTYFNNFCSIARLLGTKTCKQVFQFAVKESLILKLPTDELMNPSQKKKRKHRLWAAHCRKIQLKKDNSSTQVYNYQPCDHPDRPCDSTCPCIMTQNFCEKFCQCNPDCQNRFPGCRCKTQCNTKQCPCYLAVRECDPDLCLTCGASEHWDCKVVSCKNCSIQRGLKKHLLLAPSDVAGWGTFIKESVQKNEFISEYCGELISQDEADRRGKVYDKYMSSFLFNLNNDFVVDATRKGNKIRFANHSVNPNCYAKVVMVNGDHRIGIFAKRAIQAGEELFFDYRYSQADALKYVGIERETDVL
Chain of EZH1 (O75530 whole entry partner, species assumed): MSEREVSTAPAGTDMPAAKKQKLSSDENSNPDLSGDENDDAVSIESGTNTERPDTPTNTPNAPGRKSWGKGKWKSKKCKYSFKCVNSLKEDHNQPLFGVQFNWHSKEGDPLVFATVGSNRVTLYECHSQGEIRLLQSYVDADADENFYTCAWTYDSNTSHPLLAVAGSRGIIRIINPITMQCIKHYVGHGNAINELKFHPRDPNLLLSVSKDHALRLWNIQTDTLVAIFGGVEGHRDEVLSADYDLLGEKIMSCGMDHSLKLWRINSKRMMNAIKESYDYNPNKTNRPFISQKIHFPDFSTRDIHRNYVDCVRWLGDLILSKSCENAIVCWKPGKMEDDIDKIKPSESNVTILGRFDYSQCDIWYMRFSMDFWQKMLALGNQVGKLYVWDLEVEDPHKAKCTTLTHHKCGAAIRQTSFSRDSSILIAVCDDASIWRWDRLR
Chain of EZH1 (Q15022 whole entry partner, species assumed): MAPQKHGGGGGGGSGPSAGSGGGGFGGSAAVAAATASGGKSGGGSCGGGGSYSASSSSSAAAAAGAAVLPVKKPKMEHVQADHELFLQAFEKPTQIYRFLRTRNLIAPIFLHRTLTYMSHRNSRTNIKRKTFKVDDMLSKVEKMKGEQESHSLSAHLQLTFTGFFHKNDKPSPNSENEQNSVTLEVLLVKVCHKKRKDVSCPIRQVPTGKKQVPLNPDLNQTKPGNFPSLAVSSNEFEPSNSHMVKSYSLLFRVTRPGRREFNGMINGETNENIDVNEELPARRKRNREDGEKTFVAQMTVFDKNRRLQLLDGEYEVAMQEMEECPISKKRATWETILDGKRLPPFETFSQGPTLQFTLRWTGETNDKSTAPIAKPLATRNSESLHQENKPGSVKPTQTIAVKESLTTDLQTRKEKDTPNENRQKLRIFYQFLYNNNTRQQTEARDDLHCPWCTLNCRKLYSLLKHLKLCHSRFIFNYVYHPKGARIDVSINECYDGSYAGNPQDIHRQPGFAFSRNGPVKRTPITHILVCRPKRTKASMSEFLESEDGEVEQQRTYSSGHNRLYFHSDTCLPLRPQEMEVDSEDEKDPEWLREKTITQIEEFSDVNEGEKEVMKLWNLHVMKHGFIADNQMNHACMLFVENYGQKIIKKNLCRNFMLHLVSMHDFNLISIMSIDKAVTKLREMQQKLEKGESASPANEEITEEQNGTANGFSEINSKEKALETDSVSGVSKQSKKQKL

Chain of EZH2 (Q15910 whole entry, species assumed): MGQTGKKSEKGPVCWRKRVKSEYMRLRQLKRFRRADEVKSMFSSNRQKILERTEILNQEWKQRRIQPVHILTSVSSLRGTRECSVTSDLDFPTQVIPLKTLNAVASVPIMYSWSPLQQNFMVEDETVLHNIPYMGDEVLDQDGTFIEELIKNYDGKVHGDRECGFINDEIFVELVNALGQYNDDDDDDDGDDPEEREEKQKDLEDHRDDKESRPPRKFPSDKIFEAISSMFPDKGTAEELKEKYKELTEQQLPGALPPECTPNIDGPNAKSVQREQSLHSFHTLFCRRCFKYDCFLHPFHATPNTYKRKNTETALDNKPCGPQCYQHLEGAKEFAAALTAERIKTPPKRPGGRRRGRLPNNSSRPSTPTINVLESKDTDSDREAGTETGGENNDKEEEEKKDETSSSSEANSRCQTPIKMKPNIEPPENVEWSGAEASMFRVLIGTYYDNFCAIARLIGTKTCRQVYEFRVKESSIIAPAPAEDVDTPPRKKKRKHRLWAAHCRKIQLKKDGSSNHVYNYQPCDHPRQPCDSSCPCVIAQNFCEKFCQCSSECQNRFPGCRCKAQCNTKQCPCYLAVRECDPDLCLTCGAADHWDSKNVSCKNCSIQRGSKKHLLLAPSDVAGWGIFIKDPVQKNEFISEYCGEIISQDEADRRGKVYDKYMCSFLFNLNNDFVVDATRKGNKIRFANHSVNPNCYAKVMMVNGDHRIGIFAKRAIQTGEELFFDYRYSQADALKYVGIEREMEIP
Chain of EZH2 (O75530 whole entry partner, species assumed): as the sequence (O75530 whole entry partner, species assumed) above
Chain of EZH2 (Q15022 whole entry partner, species assumed): as the sequence (Q15022 whole entry partner, species assumed) above

In the case of `CSc1cc(C)[nH]c(=O)c1CNC(=O)c1cc(-c2ccc3occc3c2)c2c(c1C)OC(C)(C1CCN(CC(F)F)CC1)O2` (centres unmarked) [Compound 97, 7-(benzofuran-5-yl)-2-(1-(2,2-difluoroethyl)piperidin-4-yl)-2,4-dimethyl-N-((6-methyl-4-(methylthio)-2-oxo-1,2-dihydropyridin-3-yl)methyl)benzo[d][1,3]dioxole-5-carboxamide], the inhibition at 1 µM in experiment [1] is 30 to 70%; in experiment [3], at most 30%; in experiment [4] it was at most 30%; in experiment [5], at most 30%; in experiment [6], at least 70%; in experiment [7], 30 to 70%. The inhibition at 0.005 µM in experiment [2] came out at 74.7%; in experiment [8] it was 25.9%. For the same molecule, the inhibition at 0.01 µM in experiment [2] was determined as 82.3%; in experiment [8], 20.5%.

In the case of `CSc1cc(C)[nH]c(=O)c1CNC(=O)c1cc(-c2cnc(N3CCSCC3)nc2)c2c(c1C)OC(C)(C1CCN(CC(F)(F)F)CC1)O2` (centres unmarked) [Compound 92, 2,4-dimethyl-N-((6-methyl-4-(methylthio)-2-oxo-1,2-dihydropyridin-3-yl)methyl)-7-(2-thiomorpholinopyrimidin-5-yl)-2-(1-(2,2,2-trifluoroethyl)piperidin-4-yl)benzo[d][1,3]dioxole-5-carboxamide], the inhibition at 1 µM was at least 70% in experiment [1]; at most 30% in experiment [3]; at most 30% in experiment [4]; at most 30% in experiment [5]; at least 70% in experiment [6]; 30 to 70% in experiment [7]. Also, the inhibition at 0.005 µM in experiment [2] came out at 80.1%; in experiment [8], 27.2%. Also, the results for the inhibition at 0.01 µM in experiment [2] and in experiment [8] were 91.8% and 43.2%, respectively.

Regarding `CSc1cc(C)[nH]c(=O)c1CNC(=O)c1cc(-c2c(C)noc2C)c2c(c1C)OC(C)([C@H]1CC[C@H](N(C)C)CC1)O2` (relative stereo) [Compound 13, 2-(trans-4-(dimethylamino)cyclohexyl)-7-(3,5-dimethylisoxazol-4-yl)-2,4-dimethyl-N-((6-methyl-4-(methylthio)-2-oxo-1,2-dihydropyridin-3-yl)methyl)benzo[d][1,3]dioxole-5-carboxamide], the inhibition at 1 µM was 30 to 70% in experiment [1]; at most 30% in experiment [3]; at most 30% in experiment [4]; at most 30% in experiment [5]; 30 to 70% in experiment [6]; at most 30% in experiment [7]. Moreover, the inhibition at 0.005 µM in experiment [2] was determined as 97.6%; in experiment [8], 53.7%.

Regarding `CSc1cc(C)[nH]c(=O)c1CNC(=O)c1cc(-c2cnc(N3CCCC3)nc2)c2c(c1C)OC(C)([C@H]1CC[C@H](N(C)C)CC1)O2` (relative stereo) [Compound 5, 2-(trans-4-(dimethylamino)cyclohexyl)-2,4-dimethyl-N-((6-methyl-4-(methylthio)-2-oxo-1,2-dihydropyridin-3-yl)methyl)-7-(2-(pyrrolidin-1-yl)pyrimidin-5-yl)benzo[d][1,3]dioxole-5-carboxamide], the inhibition at 1 µM in experiment [1] was 30 to 70%; in experiment [3], at most 30%; in experiment [4] it was at most 30%; in experiment [5], 30 to 70%; in experiment [6], 30 to 70%; in experiment [7] it was at most 30%. Also, the inhibition at 0.005 µM was 99.5% in experiment [2] and 95.1% in experiment [8].

Take `CSc1cc(C)[nH]c(=O)c1CNC(=O)c1cc(-c2ccc(N3C[C@@H](C)O[C@@H](C)C3)nc2)c2c(c1C)OC(C)(C1CCN(C[C@H](C)O)CC1)O2` (stereo partly drawn) [Compound 40, 7-(6-((2S,6R)-2,6-dimethylmorpholino)pyridin-3-yl)-2-(1-((S)-2-hydroxypropyl)piperidin-4-yl)-2,4-dimethyl-N-((6-methyl-4-(methylthio)-2-oxo-1,2-dihydropyridin-3-yl)methyl)benzo[d][1,3]dioxole-5-carboxamide]: the inhibition at 1 µM in experiment [1] was at least 70%; in experiment [3] it was 30 to 70%; in experiment [4] it was at most 30%; in experiment [5], 30 to 70%; in experiment [6] it was 30 to 70%; in experiment [7], at most 30%. Besides, the inhibition at 0.005 µM in experiment [2] is 94.6%; in experiment [8], 73.8%.

For the molecule `CSc1cc(C)[nH]c(=O)c1CNC(=O)c1cc(-c2ccc(F)cc2)c2c(c1C)OC(C)([C@H]1CC[C@H](N(C)C)CC1)O2` (relative stereo) [Compound 10, 2-(trans-4-(dimethylamino)cyclohexyl)-7-(4-fluorophenyl)-2,4-dimethyl-N-((6-methyl-4-(methylthio)-2-oxo-1,2-dihydropyridin-3-yl)methyl)benzo[d][1,3]dioxole-5-carboxamide], the inhibition at 1 µM is 30 to 70% in experiment [1]; at most 30% in experiment [3]; at most 30% in experiment [4]; 30 to 70% in experiment [5]; at least 70% in experiment [6]; at most 30% in experiment [7]. For the same molecule, the inhibition at 0.005 µM in experiment [2] is 98.7%; in experiment [8], 82.8%.

Regarding `CCN1CCC(C2(C)Oc3c(-c4cnc(N(C)CC)nc4)cc(C(=O)NCc4c(SC)cc(C)[nH]c4=O)c(C)c3O2)CC1` (single isomer, unassigned) [Compound 83, 7-(2-(ethyl(methyl)amino)pyrimidin-5-yl)-2-(1-ethylpiperidin-4-yl)-2,4-dimethyl-N-((6-methyl-4-(methylthio)-2-oxo-1,2-dihydropyridin-3-yl)methyl)benzo[d][1,3]dioxole-5-carboxamide], the “% inhibition rate G401” value in experiment [1] (1 µM) is reported as “+++ (+++: ≥70%)”. Also, the inhibition at 0.005 µM was found to be 99.2% in experiment [2] and 45.3% in experiment [8]. Further, the values for the inhibition at 0.01 µM in experiment [2] and in experiment [8] were 99.4% and 78.8%, respectively. Moreover, the inhibition at 1 µM is at most 30% in experiment [3], at most 30% in experiment [4], 30 to 70% in experiment [5] and at most 30% in experiment [7]. In experiment [6] (1 µM), the “% inhibition rate LoVo” value is reported as “+++ (+++: ≥70%)”.

Broadly, the inhibition is the share of the control response that was lost under treatment.
